Patent publication US20230080054A1 (ILDONG PHARMACEUTICAL CO., LTD., priority 2021, published 2023)

Columns and labels:
[1] = molecular target: T1, human ANO6 (Homo sapiens, UniProt Q4KMQ2); experiment: YFP quenching assay (ANO6 ion channel activity); format: cell-based; settings: 10 μM ionomycin; for inhibition at 1 µM: test compound 1 μM, read-out: Inhibition Level 1 μM; for inhibition at 30 µM: test compound 30 μM, read-out: Inhibition Level 30 μM
T1 construct: expressed in transfected cells
T1 sequence (Q4KMQ2 1-931 isoform Q4KMQ2-2): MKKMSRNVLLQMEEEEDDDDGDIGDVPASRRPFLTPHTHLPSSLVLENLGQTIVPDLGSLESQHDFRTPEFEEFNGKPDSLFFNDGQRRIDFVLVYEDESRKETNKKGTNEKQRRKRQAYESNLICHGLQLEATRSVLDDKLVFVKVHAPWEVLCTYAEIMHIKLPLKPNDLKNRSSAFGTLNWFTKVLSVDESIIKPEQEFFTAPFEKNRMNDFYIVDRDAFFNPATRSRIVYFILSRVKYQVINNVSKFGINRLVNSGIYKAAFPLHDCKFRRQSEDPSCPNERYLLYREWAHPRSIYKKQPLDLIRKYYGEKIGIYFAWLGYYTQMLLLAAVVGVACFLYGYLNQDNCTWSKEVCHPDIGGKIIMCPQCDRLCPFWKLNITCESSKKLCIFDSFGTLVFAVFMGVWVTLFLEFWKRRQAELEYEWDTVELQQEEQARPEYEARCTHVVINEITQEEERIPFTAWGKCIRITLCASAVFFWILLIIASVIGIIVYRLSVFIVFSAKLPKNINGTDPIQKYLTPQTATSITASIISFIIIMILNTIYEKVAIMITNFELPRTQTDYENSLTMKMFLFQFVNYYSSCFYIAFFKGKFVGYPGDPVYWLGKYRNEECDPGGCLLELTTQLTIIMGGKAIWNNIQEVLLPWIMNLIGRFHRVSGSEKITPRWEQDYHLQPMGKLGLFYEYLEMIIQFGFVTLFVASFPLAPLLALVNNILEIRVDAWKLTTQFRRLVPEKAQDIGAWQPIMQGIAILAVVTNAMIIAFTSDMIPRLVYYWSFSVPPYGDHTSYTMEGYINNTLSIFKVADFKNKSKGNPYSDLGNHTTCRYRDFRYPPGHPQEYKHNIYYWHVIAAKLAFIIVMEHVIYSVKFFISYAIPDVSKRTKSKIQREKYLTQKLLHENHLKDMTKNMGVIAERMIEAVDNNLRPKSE
Outline: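 FRT cells stably expressing human ANO6 and YFP-H148Q/I152L/F46L, preincubated 10 min at 40° C with compounds (1% DMSO) in PBS. Quench read every 0.4 s after injecting 140 mM SCN- with 10 μM ionomycin; % inhibition from the 3.6–7.6 s fluorescence difference, normalised to no-ionomycin (100%) and ionomycin-only (0%) wells, duplicate or triplicate.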

[2] = molecular target: T1, human ANO6; experiment: LACT C2 assay (phosphatidylserine scramblase function assay); format: cell-based; settings: FRT cells expressing human ANO6, 10 μM ionomycin; for inhibition at 0.1 µM: test compound 100 nM, read-out: Inhibition Level 100 nM; for inhibition at 1 µM: test compound 1 μM, read-out: Inhibition Level 1 μM
Outline: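 Inhibition was normalised between ionomycin-only (0%) and untreated (100%) wells, with triplicates averaged. Readout was background-corrected Lact-C2-GFP (500 nM) fluorescence from imaged cells. The cells were FRT cells stably expressing human ANO6, given compound at 1% DMSO for 10 min before a 10 min 10 μM ionomycin challenge.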

| inhibition at 1 µM [1] [%] | inhibition at 30 µM [1] [%] | inhibition at 0.1 µM [2] [%] | inhibition at 1 µM [2] [%] | Compound |
| --- | --- | --- | --- | --- |
| ≥ 60 | ≥ 60 | < 30 | 30 to 60 | O=C(Nc1cccc(F)c1)c1cccc(Nc2ccc(-c3ccc(F)cc3)nn2)c1 [Compound A15] |
| 30 to 60 | ≥ 60 | < 30 | < 30 | Cc1ccc(CNC(=O)c2cccc(Nc3ccc(-c4ccc(F)cc4)nn3)c2)o1 [Compound A1] |
| ≥ 60 | ≥ 60 | < 30 | < 30 | Cc1ccc(CNC(=O)c2cccc(Nc3ccc(-c4ccc(F)cc4)nn3)c2)cc1 [Compound A22] |
| ≥ 60 | ≥ 60 | < 30 | < 30 | Cc1ccc(CNC(=O)c2cccc(Nc3ccc(-c4ccccc4)nn3)c2)o1 [Compound A8] |
| ≥ 60 | ≥ 60 | 30 to 60 | ≥ 60 | CCCCCCNC(=O)c1cccc(Nc2ccc(-c3ccccc3)nn2)c1 [Compound A37] |
| ≥ 60 | – | < 30 | ≥ 60 | O=C(Nc1ccc2c(c1)OCO2)c1cccc(Nc2ncc(-c3cccc(F)c3)cn2)c1 [Compound A85] |
| ≥ 60 | ≥ 60 | < 30 | < 30 | CC(CCc1ccccc1)NC(=O)c1cccc(Nc2ccc(-c3ccccc3)nn2)c1 (stereo not drawn) [Compound A58] |
| ≥ 60 | ≥ 60 | < 30 | < 30 | CCN(CC)c1ccc(CNC(=O)c2cccc(Nc3ccc(-c4ccccc4)nn3)c2)cc1 [Compound A55] |
| ≥ 60 | – | < 30 | ≥ 60 | CCOc1ccc(NC(=O)c2cccc(Nc3ccc(-c4ccccc4)nn3)c2)cc1 [Compound A80] |
| ≥ 60 | ≥ 60 | – | 30 to 60 | O=C(NCc1ccc(F)cc1)c1cccc(Nc2ccc(-c3ccccc3)nn2)c1 [Compound A24] |
| 30 to 60 | ≥ 60 | < 30 | < 30 | O=C(NCc1ccc2c(c1)OCO2)c1cccc(Nc2ccc(-c3ccccc3)nn2)c1 [Compound A64] |
| 30 to 60 | ≥ 60 | < 30 | < 30 | CSc1ccc(CNC(=O)c2cccc(Nc3ccc(-c4ccc(F)cc4)nn3)c2)cc1 [Compound A27] |
| ≥ 60 | ≥ 60 | 30 to 60 | ≥ 60 | CC(C)CCNC(=O)c1cccc(Nc2ccc(-c3ccccc3)nn2)c1 [Compound A70] |
| ≥ 60 | ≥ 60 | – | 30 to 60 | CCCCCNC(=O)c1cccc(Nc2ccc(-c3ccccc3)nn2)c1 [Compound A72] |
| ≥ 60 | ≥ 60 | < 30 | < 30 | CC(C)c1ccc(CNC(=O)c2cccc(Nc3ccc(-c4ccccc4)nn3)c2)cc1 [Compound A53] |
| 30 to 60 | ≥ 60 | ≥ 60 | ≥ 60 | O=C(NC1CCCCCC1)c1cccc(Nc2ccc(-c3ccccc3)nn2)c1 [Compound A39] |
| 30 to 60 | ≥ 60 | < 30 | 30 to 60 | CSc1ccc(CNC(=O)c2cccc(Nc3ccc(-c4ccccc4)nn3)c2)cc1 [Compound A44] |
| 30 to 60 | ≥ 60 | < 30 | 30 to 60 | O=C(NCc1ccccc1)c1cccc(Nc2ccc(-c3ccccc3)nn2)c1 [Compound A75] |

Further lines, the compound ahead of its results:

| Compound | inhibition at 1 µM [1] [%] | inhibition at 30 µM [1] [%] | inhibition at 0.1 µM [2] [%] | inhibition at 1 µM [2] [%] |
| --- | --- | --- | --- | --- |
| Cc1ccc(CNC(=O)c2cccc(Nc3ccc(-c4cccnc4)nn3)c2)o1 [Compound 10, N-[(5-methylfuran-2-yl)methyl]-3-{[6-(pyridin-3-yl)pyridazin-3-yl]amino}benzamide] | ≥ 60 | ≥ 60 | – | < 30 |
| Cc1ccc(CNC(=O)c2cccc(Nc3ccc(-c4ccccc4)cc3)c2)o1 [Compound 3, 3-({[1,1′-biphenyl]-4-yl}amino)-N-[(5-methylfuran-2-yl)methyl]benzamide] | ≥ 60 | ≥ 60 | < 30 | ≥ 60 |
| O=C(NCCc1ccccc1)c1cccc(Nc2ccc(-c3ccccc3)cc2)c1 [Compound 50, 3-({[1,1′-biphenyl]-4-yl}amino)-N-(2-phenylethyl)benzamide] | ≥ 60 | – | – | 30 to 60 |
| O=C(NCCc1ccccc1)c1cccc(Nc2ccc(-c3cccc(F)c3)cn2)c1 [Compound 121, 3-{[5-(3-fluorophenyl)pyridin-2-yl]amino}-N-(2-phenylethyl)benzamide] | ≥ 60 | – | – | 30 to 60 |
| O=C(NCCC1CCCCC1)c1cccc(Nc2ncc(-c3ccccc3)cn2)c1 [Compound 81, N-(2-cyclohexylethyl)-3-[(5-phenylpyrimidin-2-yl)amino]benzamide] | ≥ 60 | – | 30 to 60 | ≥ 60 |
| Cc1ccc(CNC(=O)c2cccc(Nc3ccc(-c4cccc(F)c4)cn3)c2)o1 [Compound 125, 3-{[5-(3-fluorophenyl)pyridin-2-yl]amino}-N-[(5-methylfuran-2-yl)methyl]benzamide] | ≥ 60 | – | < 30 | ≥ 60 |
| O=C(NCC1CCC1)c1cccc(Nc2ccc(-c3ccccc3)nn2)c1 [Compound 30, N-(cyclobutylmethyl)-3-[(6-phenylpyridazin-3-yl)amino]benzamide] | ≥ 60 | ≥ 60 | – | 30 to 60 |
| O=C(NCCc1ccccc1)c1cccc(Nc2ncc(-c3ccccc3)cn2)c1 [Compound 52, N-(2-phenylethyl)-3-[(5-phenylpyrimidin-2-yl)amino]benzamide] | ≥ 60 | – | – | 30 to 60 |
| Cc1ccc(CNC(=O)c2cccc(Nc3ccc(-c4cccc(F)c4)cc3)c2)o1 [Compound 57, 3-({3′-fluoro-[1,1′-biphenyl]-4-yl}amino)-N-[(5-methylfuran-2-yl)methyl]benzamide] | ≥ 60 | – | < 30 | ≥ 60 |
| O=C(N[C@@H]1C[C@H]1c1ccccc1)c1cccc(Nc2ncc(-c3ccccc3)cn2)c1 [Compound 117, N-[(1R,2S)-2-phenylcyclopropyl]-3-[(5-phenylpyrimidin-2-yl)amino]benzamide] | ≥ 60 | – | < 30 | < 30 |
| O=C(NCCCc1ccccc1)c1cccc(Nc2ccc(-c3ccccc3)cc2)c1 [Compound 53, 3-({[1,1′-biphenyl]-4-yl}amino)-N-(3-phenylpropyl)benzamide] | ≥ 60 | – | – | ≥ 60 |
| Cc1ccc(CNC(=O)c2cccc(Nc3cnc(-c4ccccc4)cn3)c2)o1 [Compound 1, N-[(5-methylfuran-2-yl)methyl]-3-[(5-phenylpyrazin-2-yl)amino]benzamide] | 30 to 60 | ≥ 60 | – | ≥ 60 |
| Cc1ccc(CNC(=O)c2cccc(Nc3ccc(-c4ccoc4)nn3)c2)o1 [Compound 7, 3-{[6-(furan-3-yl)pyridazin-3-yl]amino}-N-[(5-methylfuran-2-yl)methyl]benzamide] | ≥ 60 | ≥ 60 | < 30 | ≥ 60 |
| O=C(NCCCc1ccccc1)c1cccc(Nc2ncc(-c3cccc(F)c3)cn2)c1 [Compound 60, 3-{[5-(3-fluorophenyl)pyrimidin-2-yl]amino}-N-(3-phenylpropyl)benzamide] | ≥ 60 | – | 30 to 60 | ≥ 60 |
